# Laboratory results: patent US20250326753A1, “DUAL CXCR4-BTK INHIBITORS” (X4 Pharmaceuticals, Inc., priority 2022, published 2025)
# Where two headings read alike, the source gives them in different places.
# Tests used:
# Type in all cases: biochemical
# BLK = target: T1, BLK (Homo sapiens, UniProt P51451); assay: PanQinase kinase panel: BLK; settings: read-out: INHIBITORY EFFECT @ 1 uM: BLK
# T1 construct: purchased Reaction Biology Europe GmbH
# Experimental: (§1) Screening procedures were performed in accordance with the company's on-line protocol [accessed on-line Mar.
# (§2) For each kinase, the median value of the cpm of three wells was defined as “low control” (n=3). This value reflects unspecific binding of radioactivity to the plate in the absence of a protein kinase but in the presence of the substrate. Additionally, for each kinase the median value of the cpm of three other wells was taken as the “high control,” i.e. full activity in the absence of any inhibitor (n=3). The difference between high and low control of each enzyme was taken as 100% activity.
# (§3) As part of the data evaluation the low control of each kinase was subtracted from the high control value as well as from their corresponding “compound values”.
# ERBB2 = target: T2, ERBB2 (Homo sapiens, UniProt P04626); assay: PanQinase kinase panel: ERBB2; settings: read-out: INHIBITORY EFFECT @ 1 uM: ERBB2
# T2 construct: purchased Reaction Biology Europe GmbH
# Experimental: as §1, §2
# (§4) As part of the data evaluation the low control of each kinase was subtracted from the high control value as well as from their corresponding “compound values”. The residual activity (in %) for each compound well was calculated by using the following formula: Res. Activity (%)=100×[(signal of compound−low control)/(high control−low control)].
# LCK = target: T3, LCK (Homo sapiens, UniProt P06239); assay: PanQinase kinase panel: LCK; settings: read-out: INHIBITORY EFFECT @ 1 uM: LCK
# T3 construct: purchased Reaction Biology Europe GmbH
# Experimental: as §1, §2, §4
# CLK2 = target: T4, CLK2 (Homo sapiens, UniProt P49760); assay: PanQinase kinase panel: CLK2
# T4 construct: purchased Reaction Biology Europe GmbH
# Experimental: as §1, §2, §4
# JAK3 = target: T5, JAK3 (Homo sapiens, UniProt P52333); assay: PanQinase kinase panel: JAK3; settings: for inhibition at 1 µM: read-out: INHIBITORY EFFECT @ 1 uM: JAK3
# T5 construct: purchased Reaction Biology Europe GmbH
# T5 sequence (P52333 1-1124): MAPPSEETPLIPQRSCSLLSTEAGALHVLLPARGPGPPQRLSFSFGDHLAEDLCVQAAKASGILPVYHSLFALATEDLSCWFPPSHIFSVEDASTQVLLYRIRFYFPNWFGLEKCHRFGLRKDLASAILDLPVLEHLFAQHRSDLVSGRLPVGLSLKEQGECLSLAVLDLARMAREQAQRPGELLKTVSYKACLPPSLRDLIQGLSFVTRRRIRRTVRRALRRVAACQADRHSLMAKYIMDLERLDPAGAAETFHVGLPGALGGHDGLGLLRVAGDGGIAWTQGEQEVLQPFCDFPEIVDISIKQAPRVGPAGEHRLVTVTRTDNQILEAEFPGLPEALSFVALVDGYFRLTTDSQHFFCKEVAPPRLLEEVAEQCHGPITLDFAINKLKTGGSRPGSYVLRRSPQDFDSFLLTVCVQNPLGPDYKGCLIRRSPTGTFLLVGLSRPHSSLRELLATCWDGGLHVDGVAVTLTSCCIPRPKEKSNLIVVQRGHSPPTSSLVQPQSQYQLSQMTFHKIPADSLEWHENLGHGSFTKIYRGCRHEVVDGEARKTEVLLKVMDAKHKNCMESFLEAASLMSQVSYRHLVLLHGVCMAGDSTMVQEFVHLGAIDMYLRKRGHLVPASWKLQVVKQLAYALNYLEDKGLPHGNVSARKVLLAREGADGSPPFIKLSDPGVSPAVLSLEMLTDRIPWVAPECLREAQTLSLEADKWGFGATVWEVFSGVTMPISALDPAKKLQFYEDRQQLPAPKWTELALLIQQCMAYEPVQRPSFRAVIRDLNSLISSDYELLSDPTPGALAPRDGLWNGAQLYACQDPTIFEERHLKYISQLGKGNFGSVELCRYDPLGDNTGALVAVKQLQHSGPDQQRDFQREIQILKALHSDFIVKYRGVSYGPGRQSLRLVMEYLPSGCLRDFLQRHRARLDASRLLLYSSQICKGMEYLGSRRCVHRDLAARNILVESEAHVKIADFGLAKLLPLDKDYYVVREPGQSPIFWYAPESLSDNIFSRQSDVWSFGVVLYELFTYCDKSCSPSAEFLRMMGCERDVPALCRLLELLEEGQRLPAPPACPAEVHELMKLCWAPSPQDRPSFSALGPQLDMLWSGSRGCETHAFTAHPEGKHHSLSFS
# Experimental: as §1, §2, §3
# KIT = target: T6, KIT (Homo sapiens, UniProt P10721); assay: PanQinase kinase panel: KIT; settings: read-out: INHIBITORY EFFECT @ 1 uM: KIT
# T6 construct: purchased Reaction Biology Europe GmbH
# Experimental: as §1, §2, §4
# PAK2 = target: T7, PAK2 (Homo sapiens, UniProt Q13177); assay: PanQinase kinase panel: PAK2; settings: read-out: INHIBITORY EFFECT @ 1 uM: PAK2
# T7 construct: purchased Reaction Biology Europe GmbH
# Experimental: as §1, §2, §4
# [1] = read-out: INHIBITORY EFFECT @ 1 uM: CLK2
# T6 sequence (P10721 26-976): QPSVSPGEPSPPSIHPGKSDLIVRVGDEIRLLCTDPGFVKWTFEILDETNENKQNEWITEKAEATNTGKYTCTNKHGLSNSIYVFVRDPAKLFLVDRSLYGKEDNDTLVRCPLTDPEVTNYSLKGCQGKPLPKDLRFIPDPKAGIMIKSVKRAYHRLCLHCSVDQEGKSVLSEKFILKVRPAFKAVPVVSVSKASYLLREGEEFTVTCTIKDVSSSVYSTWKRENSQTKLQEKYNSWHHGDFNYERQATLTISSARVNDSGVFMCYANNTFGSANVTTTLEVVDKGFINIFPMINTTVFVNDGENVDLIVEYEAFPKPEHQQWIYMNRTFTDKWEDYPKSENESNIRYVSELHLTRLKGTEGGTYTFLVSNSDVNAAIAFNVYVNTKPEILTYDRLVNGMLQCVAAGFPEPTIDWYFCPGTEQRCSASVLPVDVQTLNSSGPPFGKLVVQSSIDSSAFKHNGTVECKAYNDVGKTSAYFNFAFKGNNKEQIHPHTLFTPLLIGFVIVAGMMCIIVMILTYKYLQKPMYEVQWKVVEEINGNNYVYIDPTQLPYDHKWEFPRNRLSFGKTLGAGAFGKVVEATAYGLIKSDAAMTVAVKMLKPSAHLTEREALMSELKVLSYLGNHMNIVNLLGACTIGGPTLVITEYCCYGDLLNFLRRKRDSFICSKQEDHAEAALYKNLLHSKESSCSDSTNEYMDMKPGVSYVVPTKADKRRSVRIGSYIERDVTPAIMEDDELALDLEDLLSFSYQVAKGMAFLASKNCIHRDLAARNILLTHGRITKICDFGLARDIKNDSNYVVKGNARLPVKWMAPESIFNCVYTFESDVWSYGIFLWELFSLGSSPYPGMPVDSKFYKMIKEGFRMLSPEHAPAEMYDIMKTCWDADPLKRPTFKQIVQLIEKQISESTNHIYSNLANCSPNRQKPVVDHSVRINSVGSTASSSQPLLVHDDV
# T2 sequence (P04626 23-1255): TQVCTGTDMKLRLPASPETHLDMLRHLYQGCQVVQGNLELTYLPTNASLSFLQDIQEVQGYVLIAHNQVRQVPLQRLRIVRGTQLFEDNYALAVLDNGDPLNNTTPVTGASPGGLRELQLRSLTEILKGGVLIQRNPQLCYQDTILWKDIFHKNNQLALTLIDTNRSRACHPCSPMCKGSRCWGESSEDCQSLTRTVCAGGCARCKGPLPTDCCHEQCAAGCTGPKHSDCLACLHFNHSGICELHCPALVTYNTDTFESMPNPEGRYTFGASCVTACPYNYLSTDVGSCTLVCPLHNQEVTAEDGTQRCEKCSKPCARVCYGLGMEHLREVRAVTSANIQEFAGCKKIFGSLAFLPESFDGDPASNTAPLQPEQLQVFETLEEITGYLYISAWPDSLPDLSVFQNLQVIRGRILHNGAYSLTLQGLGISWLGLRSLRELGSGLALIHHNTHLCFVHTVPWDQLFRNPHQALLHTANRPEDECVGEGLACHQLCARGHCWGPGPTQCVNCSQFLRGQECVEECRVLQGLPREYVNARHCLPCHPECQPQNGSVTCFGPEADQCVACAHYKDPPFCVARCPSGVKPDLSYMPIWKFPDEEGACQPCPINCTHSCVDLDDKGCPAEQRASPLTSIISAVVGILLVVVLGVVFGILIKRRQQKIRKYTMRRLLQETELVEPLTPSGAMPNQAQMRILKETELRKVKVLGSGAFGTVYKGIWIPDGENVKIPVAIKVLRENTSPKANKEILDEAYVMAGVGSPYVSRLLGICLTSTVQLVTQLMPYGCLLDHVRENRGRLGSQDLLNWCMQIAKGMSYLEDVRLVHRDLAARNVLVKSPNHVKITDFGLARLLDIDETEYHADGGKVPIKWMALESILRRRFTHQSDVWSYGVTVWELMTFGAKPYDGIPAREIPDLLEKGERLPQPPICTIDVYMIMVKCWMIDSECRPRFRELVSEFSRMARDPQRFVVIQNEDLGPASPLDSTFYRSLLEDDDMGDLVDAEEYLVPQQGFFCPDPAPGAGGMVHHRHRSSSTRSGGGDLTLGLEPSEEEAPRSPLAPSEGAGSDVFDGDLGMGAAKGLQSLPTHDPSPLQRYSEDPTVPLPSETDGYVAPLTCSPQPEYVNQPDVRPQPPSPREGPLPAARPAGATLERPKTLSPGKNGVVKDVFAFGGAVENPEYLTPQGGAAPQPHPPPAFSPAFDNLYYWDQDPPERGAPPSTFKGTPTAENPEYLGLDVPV
# T7 sequence (Q13177 whole entry): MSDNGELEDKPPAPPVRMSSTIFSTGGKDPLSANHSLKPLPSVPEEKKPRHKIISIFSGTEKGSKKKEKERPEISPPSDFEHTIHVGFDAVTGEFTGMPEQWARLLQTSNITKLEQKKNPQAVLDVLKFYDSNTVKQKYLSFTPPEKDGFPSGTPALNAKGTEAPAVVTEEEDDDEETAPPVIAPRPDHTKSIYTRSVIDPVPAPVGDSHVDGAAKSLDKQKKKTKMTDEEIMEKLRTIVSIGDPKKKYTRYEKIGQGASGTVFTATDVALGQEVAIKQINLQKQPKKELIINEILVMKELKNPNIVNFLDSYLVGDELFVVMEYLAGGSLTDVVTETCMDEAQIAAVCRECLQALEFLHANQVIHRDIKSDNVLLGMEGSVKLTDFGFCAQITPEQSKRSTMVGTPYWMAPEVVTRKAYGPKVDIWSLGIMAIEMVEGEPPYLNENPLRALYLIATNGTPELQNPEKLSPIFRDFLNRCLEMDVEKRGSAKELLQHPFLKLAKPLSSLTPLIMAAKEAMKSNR
# T3 sequence (P06239 whole entry): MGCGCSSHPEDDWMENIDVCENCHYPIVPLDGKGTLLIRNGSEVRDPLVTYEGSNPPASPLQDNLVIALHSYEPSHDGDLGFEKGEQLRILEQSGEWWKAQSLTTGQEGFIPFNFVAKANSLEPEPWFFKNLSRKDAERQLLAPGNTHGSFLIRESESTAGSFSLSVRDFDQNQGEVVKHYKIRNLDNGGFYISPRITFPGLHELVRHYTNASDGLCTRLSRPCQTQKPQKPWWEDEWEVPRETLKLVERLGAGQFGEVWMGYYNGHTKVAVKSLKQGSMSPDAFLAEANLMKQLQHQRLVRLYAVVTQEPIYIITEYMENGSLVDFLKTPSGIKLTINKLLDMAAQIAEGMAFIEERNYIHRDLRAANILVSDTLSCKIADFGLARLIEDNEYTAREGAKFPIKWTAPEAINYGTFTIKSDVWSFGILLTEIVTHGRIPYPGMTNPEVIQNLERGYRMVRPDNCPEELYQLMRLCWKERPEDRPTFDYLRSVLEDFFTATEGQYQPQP
# T4 sequence (P49760 whole entry): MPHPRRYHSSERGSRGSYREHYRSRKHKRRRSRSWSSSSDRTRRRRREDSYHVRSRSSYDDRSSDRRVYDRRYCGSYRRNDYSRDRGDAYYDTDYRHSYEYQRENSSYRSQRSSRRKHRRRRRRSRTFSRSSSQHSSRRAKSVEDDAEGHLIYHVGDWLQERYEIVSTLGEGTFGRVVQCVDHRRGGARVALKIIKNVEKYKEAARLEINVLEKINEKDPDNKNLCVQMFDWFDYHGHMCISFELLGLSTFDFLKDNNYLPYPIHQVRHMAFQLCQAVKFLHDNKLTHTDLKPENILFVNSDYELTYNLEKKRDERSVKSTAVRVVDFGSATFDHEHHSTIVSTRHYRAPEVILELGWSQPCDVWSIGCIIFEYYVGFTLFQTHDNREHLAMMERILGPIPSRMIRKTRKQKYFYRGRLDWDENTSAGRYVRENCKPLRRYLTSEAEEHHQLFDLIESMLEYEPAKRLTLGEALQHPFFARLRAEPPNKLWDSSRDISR
# T1 sequence (P51451 whole entry): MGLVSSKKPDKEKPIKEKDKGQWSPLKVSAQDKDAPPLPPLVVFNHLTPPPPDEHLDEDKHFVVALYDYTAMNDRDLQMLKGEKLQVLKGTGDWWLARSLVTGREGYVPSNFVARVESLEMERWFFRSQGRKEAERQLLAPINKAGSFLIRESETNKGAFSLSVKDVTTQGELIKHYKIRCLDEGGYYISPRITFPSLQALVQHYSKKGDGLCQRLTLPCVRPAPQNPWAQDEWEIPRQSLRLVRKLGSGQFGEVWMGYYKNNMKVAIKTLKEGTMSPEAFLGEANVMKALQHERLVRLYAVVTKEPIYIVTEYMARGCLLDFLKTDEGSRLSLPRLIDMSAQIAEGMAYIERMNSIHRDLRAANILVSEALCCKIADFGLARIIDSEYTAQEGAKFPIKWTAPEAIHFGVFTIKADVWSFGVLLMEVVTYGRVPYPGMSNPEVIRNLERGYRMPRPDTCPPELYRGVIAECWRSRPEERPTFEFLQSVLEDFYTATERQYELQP
Structure (SMILES),inhibition at 1 µM (BLK) [%],inhibition at 1 µM (ERBB2) [%],inhibition at 1 µM (LCK) [%],inhibition at 1 µM (CLK2; [1]) [%],inhibition at 1 µM (JAK3) [%],inhibition at 1 µM (KIT) [%],inhibition at 1 µM (PAK2) [%],INHIBITORY EFFECT @ 1 uM: JAK3 (JAK3; 1 uM),"inhibition at 1 µM (CLK2; at 1 μM, read-out: inhibition of CLK2) [%]"
"COc1ccc(F)cc1C(=O)NCc1ccc(-c2nn([C@@H](C)C(F)(F)F)c(N)c2C(N)=O)cc1 [LOXO-305, pirtobrutinib]",< 50,50 to 69,< 50,< 50,< 50,< 50,< 50,–,–
"C=CC(=O)N1CCC([C@@H]2CCNc3c(C(N)=O)c(-c4ccc(Oc5ccccc5)cc4)nn32)CC1 [Zanubrutinib, (7S)-2-(4-phenoxyphenyl)-7-(1-prop-2-enoylpiperidin-4-yl)-4,5,6,7-tetrahydropyrazolo[1,5-a]pyrimidine-3-carboxamide]",–,< 50,< 50,< 50,–,< 50,< 50,+ (Below 50% Inhibition at 1 uM),–
"O=C(c1ccc(Oc2ccccc2)cc1Cl)c1c[nH]c2ncnc(N[C@@H]3CC[C@@H](CO)OC3)c12 [ARQ-531, (2-chloro-4-phenoxyphenyl) (4-(((3R,6S)-6-(hydroxymethyl)tetrahydro-2H-pyran-3-yl)amino)-7H-pyrrolo[2,3-d]pyrimidin-5-yl) methanone]",90 to 100,70 to 89,90 to 100,–,50 to 69,90 to 100,70 to 89,–,–
"Cc1cccnc1[C@H]1CCC[C@@H](c2ncccc2C)N1CCN1CCN(C(=O)c2ccc(-c3cc4c(-c5cccc(NC(=O)c6ccccc6)c5C)ncnc4[nH]3)cc2)CC1 [Compound I-10, N-(3-(6-(4-(4-(2-((2R,6S)-2,6-bis(3-methylpyridin-2-yl)piperidin-1-yl)ethyl)piperazine-1-carbonyl)phenyl)-7H-pyrrolo[2,3-d]pyrimidin-4-yl)-2-methylphenyl)benzamide]",< 50,< 50,< 50,50 to 69,< 50,< 50,< 50,–,50 to 89
